Measurements: ChEMBL document CHEMBL4842341, “Discovery of IACS-9779 and IACS-70465 as Potent Inhibitors Targeting Indoleamine 2,3-Dioxygenase 1 (IDO1) Apoenzyme” (J Med Chem, 2021)
One block for each compound: values may come before it.

How the values were obtained:
in vivo [1] = details: CD1, mouse, iv, 0.3 mg/kg
in vivo [2] = details: CD1, mouse, iv, 0.3 mg/kg; remark: listed apart in the source
in vivo [3] = details: CD1, mouse, iv, 0.3 mg/kg; remark: listed apart in the source
in vivo [4] = details: CD1, mouse, iv, 0.3 mg/kg; remark: listed apart in the source
in vivo [5] = details: CD1, mouse, po, 10 mg/kg
in vivo [6] = details: CD1, mouse, po, 10 mg/kg; remark: listed apart in the source
in vitro [7] = details: human, liver microsomes
in vitro [8] = details: rat, liver microsomes
in vivo [9] = details: NSG, mouse, tumor, po, 125 mg/kg
in vivo [10] = details: NSG, mouse, plasma, po, 125 mg/kg
[11] = Apparent permeability across apical side to basolateral side in wild type MDCK cells; type: ADME, cell-based, Canis lupus familiaris; details: dog
[12] = Apparent permeability across basolateral side to apical side in MDCK cells; type: ADME, cell-based, Canis lupus familiaris; details: dog
[13] = Apparent permeability across apical side to basolateral side in MDCK-MDR1 cells; type: ADME, cell-based, Canis lupus familiaris; details: dog
[14] = Apparent permeability across basolateral side to apical side in MDCK-MDR1 cells; type: ADME, cell-based, Canis lupus familiaris; details: dog
[15] = Half life in mouse plasma; type: ADME, cell-free
in vivo [16] = details: NSG, mouse, tumor, po, 125 mg/kg; remark: listed apart in the source
in vivo [17] = details: NSG, mouse, plasma, po, 125 mg/kg; remark: listed apart in the source
[18] = Drug concentration in tumor of NSG mouse xenografted with human SKOV3 cells at 200 mg/kg, po BID measured after 12 hrs by LC-MS analysis; type: ADME, organism-based, Neoplasm, SK-OV-3; details: read-out: Drug uptake
[19] = Drug concentration in plasma of NSG mouse xenografted with human SKOV3 cells at 200 mg/kg, po BID measured after 12 hrs by LC-MS analysis; type: ADME, organism-based, SK-OV-3
in vivo [20] = details: CD-1, mouse, iv, 0.3 mg/kg
in vivo [21] = details: CD-1, mouse, iv, 0.3 mg/kg; remark: listed apart in the source
in vivo [22] = details: CD-1, mouse, iv, 0.3 mg/kg; remark: listed apart in the source
in vivo [23] = details: CD-1, mouse, iv, 0.3 mg/kg; remark: listed apart in the source
in vivo [24] = details: CD-1, mouse, po, 10 mg/kg
in vivo [25] = details: CD-1, mouse, po, 10 mg/kg; remark: listed apart in the source
in vivo [26] = details: NSG, mouse, tumor, po, 125 mg/kg; remark: listed apart in the source
in vivo [27] = details: NSG, mouse, plasma, po, 125 mg/kg; remark: listed apart in the source

- AUC(0-inf) (in vivo [1]): 2.8 µM·h
- half-life (in vivo [2]): 2.7 h
- Vd (in vivo [3]): 1.04 L/kg
- clearance (in vivo [4]): 4.67 mL/min/kg
- Cmax (in vivo [5]): 1500 nM
- bioavailability (in vivo [6]): 22%
- CLint scaled at 0.75 h, 1 µM (in vitro [7]): 6.5 mL/min/kg
SMILES: CCC(NC(=O)c1ccc(Cl)cc1)[C@H]1[C@@H]2C[C@@H](n3cc(C4CC4)nn3)C[C@@H]21 (stereo not given in full)

- CLint scaled at 0.75 h, 1 µM (in vitro [7]): 8.8 mL/min/kg
SMILES: CCC(NC(=O)c1ccc(Cl)cc1)[C@H]1[C@@H]2C[C@@H](n3cnc4ccncc43)C[C@@H]21 (stereo not given in full)

- CLint scaled at 0.75 h, 1 µM (in vitro [7]): 11.8 mL/min/kg
SMILES: CCC(NC(=O)c1ccc(Cl)cc1)[C@H]1[C@@H]2C[C@@H](n3cnc4ccc(F)cc43)C[C@@H]21 (stereo not given in full)

- CLint scaled at 0.75 h, 1 µM (in vitro [7]): 32 mL/min/kg
SMILES: CCC(NC(=O)c1ccc(Cl)cc1)[C@@H]1[C@@H]2C[C@H](Oc3ccnc4cc(F)ccc34)C[C@@H]21 (stereo not given in full)

- CLint scaled at 0.75 h, 1 µM (in vitro [8]): 455 mL/min/kg
- CLint scaled at 0.75 h, 1 µM (in vitro [7]): 44 mL/min/kg
SMILES: O=C(C[C@H]1CC[C@@H](Oc2ccnc3ccccc23)CC1)Nc1ccc(Cl)cc1

- CLint scaled at 0.75 h, 1 µM (in vitro [8]): 137 mL/min/kg
- CLint scaled at 0.75 h, 1 µM (in vitro [7]): 171 mL/min/kg
SMILES: O=C(Nc1ccc(Cl)cc1)C1CC12CCC(Oc1ccnc3ccccc13)CC2 (stereo not given)

- concentration at 120 h (in vivo [9]): 11000 nM
- concentration at 120 h (in vivo [10]): 4100 nM
SMILES: CC[C@@H](NC(=O)c1ccc(Cl)c(F)c1)[C@H]1[C@@H]2C[C@@H](n3cnc4cc(F)c(F)cc43)C[C@@H]21

- CLint scaled at 0.75 h, 1 µM (in vitro [7]): 54 mL/min/kg
SMILES: CCC(NC(=O)c1ccc(Cl)cc1)[C@@H]1[C@@H]2C[C@H](Oc3ccnc4ccncc34)C[C@@H]21 (stereo not given in full)

- CLint scaled at 0.75 h, 1 µM (in vitro [8]): 884 mL/min/kg
- CLint scaled at 0.75 h, 1 µM (in vitro [7]): 681 mL/min/kg
SMILES: O=C(C[C@H]1CC[C@@H](c2ccccc2)CC1)Nc1ccc(Cl)cc1

- Papp A→B [11]: 3.63 ×10⁻⁶ cm/s
- Papp B→A [12]: 1.73 ×10⁻⁶ cm/s
- Papp A→B [13]: 1.86 ×10⁻⁶ cm/s
- Papp B→A [14]: 1.4 ×10⁻⁶ cm/s
- half-life [15]: 12.8 h
- CLint scaled at 0.75 h, 1 µM (in vitro [8]): 14 mL/min/kg
- CLint scaled at 0.75 h, 1 µM (in vitro [7]): 23 mL/min/kg
SMILES: CCC(NC(=O)c1ccc(Cl)cc1)[C@@H]1[C@@H]2C[C@@H](Oc3ccnc4ccccc34)C[C@@H]21 (stereo not given in full)

- CLint scaled at 0.75 h, 1 µM (in vitro [7]): 38 mL/min/kg
SMILES: O=C(NC[C@@H]1[C@H]2C[C@@H](Oc3ccnc4ccc(F)cc34)C[C@@H]12)c1ccc(Cl)cc1

- CLint scaled at 0.75 h, 1 µM (in vitro [7]): 100 mL/min/kg
SMILES: Fc1cc2ncn([C@H]3C[C@@H]4[C@@H](CNC(c5ccc(Cl)cc5)C(F)(F)F)[C@@H]4C3)c2cc1F (stereo not given in full)

- CLint scaled at 0.75 h, 1 µM (in vitro [7]): 14 mL/min/kg
SMILES: CCC(NC(=O)c1ccc(Cl)cc1)[C@@H]1[C@@H]2C[C@H](Oc3ccnc4cccnc34)C[C@@H]21 (stereo not given in full)

- CLint scaled at 0.75 h, 1 µM (in vitro [7]): 39 mL/min/kg
SMILES: O=C(NC[C@H]1[C@H]2C[C@@H](Oc3ccnc4ccc(F)cc34)C[C@@H]12)c1ccc(Cl)cc1

- AUC(0-inf) (in vivo [1]): 51 µM·h
- half-life (in vivo [2]): 15 h
- Vd (in vivo [3]): 0.27 L/kg
- clearance (in vivo [4]): 0.233 mL/min/kg
- Cmax (in vivo [5]): 51000 nM
- bioavailability (in vivo [6]): 146%
SMILES: CCC(NC(=O)c1ccc(Cl)cc1)[C@@H]1[C@@H]2C[C@H](Oc3ccnc4ccc(F)cc34)C[C@@H]21 (stereo not given in full)

- CLint scaled at 0.75 h, 1 µM (in vitro [8]): 526 mL/min/kg
- CLint scaled at 0.75 h, 1 µM (in vitro [7]): 227 mL/min/kg
SMILES: CC(C(=O)Nc1ccc(Cl)cc1)N1CC(COc2ccnc3ccccc23)C1 (stereo not given)

- concentration at 120 h (in vivo [16]): 2300 nM
- concentration at 120 h (in vivo [17]): 600 nM
SMILES: CC[C@@H](NC(=O)c1ccc(Cl)cc1)[C@H]1[C@@H]2C[C@@H](n3cnc4ccc(F)cc43)C[C@@H]21 (stereo in doubt; 56)

- concentration at 12 h [18]: 5000 nM
- concentration at 12 h [19]: 690 nM
- clearance at 24 h (in vivo [20]): 53.3 mL/min/kg
- Vd at 24 h (in vivo [21]): 7.5 L/kg
- half-life at 24 h (in vivo [22]): 1.6 h
- AUC(0-inf) at 24 h (in vivo [23]): 0.21 µM·h
- Cmax at 24 h (in vivo [24]): 2000 nM
- bioavailability at 24 h (in vivo [25]): 50%
- concentration at 120 h (in vivo [26]): 3200 nM
- concentration at 120 h (in vivo [27]): 100 nM
- CLint scaled at 0.75 h, 1 µM (in vitro [8]): 32 mL/min/kg
SMILES: NS(=O)(=O)NCCNc1nonc1C(=NO)Nc1ccc(F)c(Br)c1 [EPACADOSTAT]

- CLint scaled at 0.75 h, 1 µM (in vitro [8]): 39 mL/min/kg
- CLint scaled at 0.75 h, 1 µM (in vitro [7]): 11 mL/min/kg
SMILES: O[C@H](C[C@H]1c2c(F)cccc2-c2cncn21)[C@H]1CC[C@H](O)CC1 [NAVOXIMOD]

- CLint scaled at 0.75 h, 1 µM (in vitro [8]): 7.2 mL/min/kg
- CLint scaled at 0.75 h, 1 µM (in vitro [7]): 2.9 mL/min/kg
SMILES: O=C1CC(c2c[nH]c3ccc(F)cc23)C(=O)N1 (stereo not given) [PF-06840003]
